Measured values as given in patent US6914045B2, “Glycopeptide antibiotics” (Wyeth Holdings Corporation, priority 2001, dated 2005).
Values after ≈ are worked out from the molar mass of the structure shown.

Key:
Assay in all cases: in vitro antibacterial evaluation, MIC by broth dilution
Type in all cases: cell-based
Enterococcus sp. = details: broth dilution, 18 hours at 35° C.
Procedure, shortened: (§1)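 Inoculum 5×10^5 CFU/mL; concentrations 64 to 0.06 μg/mL; MIC defined as lowest inhibitory level. Conducted by broth dilution under NCCLS guidelines.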

Escherichia coli = details: 18 hours at 35° C.
Procedure, shortened: as §1

Staphylococcus sp. = details: broth dilution, 18 hours at 35° C.
Procedure, shortened: as §1

Streptococcus sp. = details: broth dilution, 18 hours at 35° C.
Procedure, shortened: as §1

For `CC(c1ccccc1)C1NC(=O)CNC(=O)C(CO)NC(=O)C(C(O)C2CNC(=N)N2C2OC(CO)C(O)C(O)C2O)NC(=O)C(C(O)C2CNC(=N)N2)NC(=O)C(Cc2ccc(OC3OC(CO)C(OC4OC5COC(C67CC8CC(CC(C8)C6)C7)OC5C(O)C4O)C(O)C3O)cc2)NC1=O` (stereo not drawn) [Example 127], the “MIC Enterococcus avium (GC 4558)” value (Enterococcus sp.; Enterococcus avium (GC 4558)) was 2 µg/mL (≈ 1.39 µM), the “MIC Enterococcus faecalis (ATCC 29212)” value (Enterococcus sp.; Enterococcus faecalis (ATCC 29212)) was 2 µg/mL (≈ 1.39 µM) and the “MIC Enterococcus faecalis (GC 2242)” value (Enterococcus sp.; Enterococcus faecalis (GC 2242)) was 4 µg/mL (≈ 2.77 µM). The “MIC Enterococcus faecalis (GC 2691)” value (Enterococcus sp.; Enterococcus faecalis (GC 2691)) was 4 µg/mL (≈ 2.77 µM), the “MIC Enterococcus faecalis (GC 3059)” value (Enterococcus sp.; Enterococcus faecalis (GC 3059)) was 2 µg/mL (≈ 1.39 µM) and the “MIC Enterococcus faecalis (GC 4552)” value (Enterococcus sp.; Enterococcus faecalis (GC 4552)) was 4 µg/mL (≈ 2.77 µM). For the same molecule, the “MIC Enterococcus faecalis (GC 4553)” value (Enterococcus sp.; Enterococcus faecalis (GC 4553)) was 4 µg/mL (≈ 2.77 µM), the “MIC Enterococcus faecalis (GC 4554)” value (Enterococcus sp.; Enterococcus faecalis (GC 4554)) was 4 µg/mL (≈ 2.77 µM) and the “MIC Enterococcus faecalis (GC 6189)” value (Enterococcus sp.; Enterococcus faecalis (GC 6189)) was 2 µg/mL (≈ 1.39 µM). For the same molecule, the “MIC Enterococcus faecium (GC 2243)” value (Enterococcus sp.; Enterococcus faecium (GC 2243)) was 4 µg/mL (≈ 2.77 µM), the “MIC Enterococcus faecium (GC 4556)” value (Enterococcus sp.; Enterococcus faecium (GC 4556)) was 4 µg/mL (≈ 2.77 µM) and the “MIC Enterococcus faecium (GC 4557)” value (Enterococcus sp.; Enterococcus faecium (GC 4557)) was 4 µg/mL (≈ 2.77 µM). For the same molecule, the “MIC Enterococcus faecalis (ATCC 29212)” value (Enterococcus sp.; strain ATCC 29212) was 2 µg/mL (≈ 1.39 µM), the “MIC Enterococcus faecalis (GC 2242)” value (Enterococcus sp.; strain GC 2242) was 4 µg/mL (≈ 2.77 µM) and the “MIC Enterococcus faecium (GC 2243)” value (Enterococcus sp.; strain GC 2243) was 4 µg/mL (≈ 2.77 µM). For the same molecule, the “MIC Enterococcus faecalis (GC 2691)” value (Enterococcus sp.; strain GC 2691) was 4 µg/mL (≈ 2.77 µM), the “MIC Enterococcus faecalis (GC 3059)” value (Enterococcus sp.; strain GC 3059) was 2 µg/mL (≈ 1.39 µM) and the “MIC Enterococcus faecalis (GC 4552)” value (Enterococcus sp.; strain GC 4552) was 4 µg/mL (≈ 2.77 µM). For the same molecule, the “MIC Enterococcus faecalis (GC 4553)” value (Enterococcus sp.; strain GC 4553) was 4 µg/mL (≈ 2.77 µM), the “MIC Enterococcus faecalis (GC 4554)” value (Enterococcus sp.; strain GC 4554) was 4 µg/mL (≈ 2.77 µM) and the “MIC Enterococcus faecium (GC 4556)” value (Enterococcus sp.; strain GC 4556) was 4 µg/mL (≈ 2.77 µM). For the same molecule, the “MIC Enterococcus faecium (GC 4557)” value (Enterococcus sp.; strain GC 4557) was 4 µg/mL (≈ 2.77 µM), the “MIC Enterococcus avium (GC 4558)” value (Enterococcus sp.; strain GC 4558) was 2 µg/mL (≈ 1.39 µM) and the “MIC Enterococcus faecalis (GC 6189)” value (Enterococcus sp.; strain GC 6189) was 2 µg/mL (≈ 1.39 µM). For the same molecule, the “MIC Escherichia coli (ATCC 25922)” value (Escherichia coli; strain ATCC 25922) was 64 µg/mL (≈ 44.4 µM), the “MIC Escherichia coli (GC 4559)” value (Escherichia coli; strain GC 4559) was 64 µg/mL (≈ 44.4 µM) and the “MIC Escherichia coli (GC 4560)” value (Escherichia coli; strain GC 4560) was 4 µg/mL (≈ 2.77 µM). The “MIC Staphylococcus aureus (ATCC 29213)” value (Staphylococcus sp.) was 2 µg/mL (≈ 1.39 µM), the “MIC Staphylococcus aureus (GC 1131)” value (Staphylococcus sp.) was 4 µg/mL (≈ 2.77 µM) and the “MIC Staphylococcus aureus (GC 3051)” value (Staphylococcus sp.) was 2 µg/mL (≈ 1.39 µM). For the same molecule, the “MIC Staphylococcus aureus (GC 3053)” value (Staphylococcus sp.) was 2 µg/mL (≈ 1.39 µM), the “MIC Staphylococcus aureus (GC 4541)” value (Staphylococcus sp.) was 4 µg/mL (≈ 2.77 µM) and the “MIC Staphylococcus aureus (GC 4542)” value (Staphylococcus sp.) was 2 µg/mL (≈ 1.39 µM). The “MIC Staphylococcus aureus (GC 4544)” value (Staphylococcus sp.) was 4 µg/mL (≈ 2.77 µM), the “MIC Staphylococcus aureus (GC 4545)” value (Staphylococcus sp.) was 2 µg/mL (≈ 1.39 µM) and the “MIC Staphylococcus aureus (GC 1131)” value (Staphylococcus sp.; inoculum 5×10^5 CFU/mL, strain GC 1131) was 4 µg/mL (≈ 2.77 µM). For the same molecule, the “MIC Staphylococcus aureus (ATCC 29213)” value (Staphylococcus sp.; strain ATCC 29213) was 2 µg/mL (≈ 1.39 µM), the “MIC Staphylococcus aureus (GC 3051)” value (Staphylococcus sp.; strain GC 3051) was 2 µg/mL (≈ 1.39 µM) and the “MIC Staphylococcus aureus (GC 3053)” value (Staphylococcus sp.; strain GC 3053) was 2 µg/mL (≈ 1.39 µM). For the same molecule, the “MIC Staphylococcus aureus (GC 4541)” value (Staphylococcus sp.; strain GC 4541) was 4 µg/mL (≈ 2.77 µM), the “MIC Staphylococcus aureus (GC 4542)” value (Staphylococcus sp.; strain GC 4542) was 2 µg/mL (≈ 1.39 µM) and the “MIC Staphylococcus aureus-SMITH (GC 4543)” value (Staphylococcus sp.; strain GC 4543) was 2 µg/mL (≈ 1.39 µM). The “MIC Staphylococcus aureus (GC 4544)” value (Staphylococcus sp.; strain GC 4544) was 4 µg/mL (≈ 2.77 µM), the “MIC Staphylococcus aureus (GC 4545)” value (Staphylococcus sp.; strain GC 4545) was 2 µg/mL (≈ 1.39 µM) and the “MIC Staphylococcus haemolyticus (GC 4546)” value (Staphylococcus sp.; strain GC 4546) was 2 µg/mL (≈ 1.39 µM). For the same molecule, the “MIC Coagulase Negative Staphylococcus (GC 4547)” value (Staphylococcus sp.; strain GC 4547) was 4 µg/mL (≈ 2.77 µM), the “MIC Coagulase Negative Staphylococcus (GC 4548)” value (Staphylococcus sp.; strain GC 4548) was 2 µg/mL (≈ 1.39 µM) and the “MIC Coagulase Negative Staphylococcus (GC 4549)” value (Staphylococcus sp.; strain GC 4549) was 1 µg/mL (≈ 0.694 µM). The “MIC Coagulase Negative Staphylococcus (GC 4551)” value (Staphylococcus sp.; strain GC 4551) was 2 µg/mL (≈ 1.39 µM), the “MIC Staphylococcus aureus-SMITH (GC 4543)” value (Staphylococcus sp.; strain SMITH GC 4543) was 2 µg/mL (≈ 1.39 µM) and the “MIC Streptococcus agalactiae (GC 4564)” value (Streptococcus sp.; Streptococcus agalactiae (GC 4564)) was under 0.12 µg/mL. For the same molecule, the “MIC Streptococcus pneumoniae (ATCC 6301)” value (Streptococcus sp.; Streptococcus pneumoniae (ATCC 6301)) was under 0.12 µg/mL, the “MIC Streptococcus pneumoniae (GC 1894)” value (Streptococcus sp.; Streptococcus pneumoniae (GC 1894)) was under 0.12 µg/mL and the “MIC Streptococcus pneumoniae (GC 4565)” value (Streptococcus sp.; Streptococcus pneumoniae (GC 4565)) was under 0.12 µg/mL. The “MIC Streptococcus pyogenes (GC 4563)” value (Streptococcus sp.; Streptococcus pyogenes (GC 4563)) was 0.25 µg/mL (≈ 0.173 µM), the “MIC Streptococcus pneumoniae (ATCC 6301)” value (Streptococcus sp.; strain ATCC 6301) was under 0.12 µg/mL and the “MIC Streptococcus pneumoniae (GC 1894)” value (Streptococcus sp.; strain GC 1894) was under 0.12 µg/mL. For the same molecule, the “MIC Streptococcus pyogenes (GC 4563)” value (Streptococcus sp.; strain GC 4563) was 0.25 µg/mL (≈ 0.173 µM), the “MIC Streptococcus agalactiae (GC 4564)” value (Streptococcus sp.; strain GC 4564) was under 0.12 µg/mL and the “MIC Streptococcus pneumoniae (GC 4565)” value (Streptococcus sp.; strain GC 4565) was under 0.12 µg/mL.
